Laboratory results published in US20240352046A1, “ECTONUCLEOTIDE PYROPHOSPHATASE-PHOSPHODIESTERASE-1 (ENPP1) INHIBITORS AND USES THEREOF” (1cBio, Inc., priority 2020, published 2024).

Tests used:
[1] = system: IP-10 release in mouse splenocytes; experiment: IP-10 in mouse splenocyte assay; assay type: cell-based, Balb/c mice; conditions: activated Balb/c splenocytes, cGAMP 1 μM, 48 hr
Experimental: Percent release of Interferon gamma-induced protein 10 (IP-10) was determined in mouse splenocytes isolated from Balb/c mice. Mouse splenocytes (2.5*10^5 cells/well) were activated with Anti-mouse CD3e (3 μg/ml, coated overnight at 4° C.; Cat #14-0032-82, eBioscience) and then incubated with Anti-mouse CD28 (3 μg/ml soluble; Cat #16-0289-81, eBiosciences) for 24 h at 37° C., 5% CO2 in an incubator (cell culture conditions) prior to treating them with serial dilutions of compounds (3 fold, 6 point dose response starting at 30 μM). After treatment with the compounds cells were further incubated for 2 h under cell culture conditions and then treated with 2′,3′-cGAMP (c-GAMP, 1 μM; Cat #SML 1229, Sigma). Splenocytes were further incubated under cell culture conditions for 48 hr after which the supernatant was harvested, and ELISA was performed as per the manufacturer's protocol (mIP-10 kit; Cat #DY466-05 & DY008, R&D Systems). Plates were read in Biotek plate reader by measuring absorbance at 450 nm.

[2] = system: IFN-β release in differentiated THP-1 cells; experiment: IFN-β cytokine release assay in THP-1; assay type: cell-based; conditions: Homo sapiens, read-out: EC50 (μM) @ 1 μM of cGAMP; IFN-β release over cGAMP induced release, THP-1, 1 μM cGAMP
Experimental: Percent release of Interferon Beta (IFN-03) was determined in acute monocytic leukemia (THP-1; ATCC® TIB-202™) cell line. THP-1 cells (0.3×10^6 cells/well) were differentiated using phorbol 12-myristate 13-acetate (PMA, 50 ng/mL; Cat #P8139, Sigma) and incubated for 24 h at 37° C., 5% CO2 in an incubator (cell culture conditions) prior to treating with serial dilutions of compounds (3 fold, 5 point dose response starting at […]). After treatment with the compounds cells were further incubated for 2 h under cell culture conditions and then exposed to 2′,3′-cGAMP (c-GAMP, 1 μM; Cat #SML 1229, Sigma). Differentiated THP-1 cells were further cultured for 6 h after which the supernatant was harvested, and ELISA was performed as per the manufacturer's protocol (Human IFN-beta Quantikine ELISA Kit; Cat #DIFNB0, R&D systems). Plates were read in Biotek plate reader by measuring absorbance at 450 nm.

[3] = system: IP-10 release in differentiated THP-1 cells; experiment: IP-10 cytokine release assay in THP-1 cell lines; assay type: cell-based, Human; conditions: Homo sapiens, read-out: EC50 (μM)@ 1 μM of cGAMP; IP-10 release over cGAMP induced release, THP-1, 1 μM cGAMP
Experimental: Percent release of Interferon gamma-induced protein 10 (IP-10) was determined in acute monocytic leukemia (THP-1; ATCC® TIB-202™) cell line. THP-1 cells (0.2×10^6 cells/well) were differentiated using phorbol 12-myristate 13-acetate (PMA, 10 nM (final concentration); Cat #P8139, Sigma) and incubated for 24 h at 37° C., 5% CO2 in an incubator (cell culture conditions) prior to treating with serial dilutions of compounds (3 fold, 6 point dose response starting at 10 μM). After treatment with the compounds cells were further incubated for 2 h under cell culture conditions and then exposed to 2′,3′-cGAMP (c-GAMP, 1 μM (final concentration); Cat #SML 1229, Sigma). Differentiated THP-1 cells were further cultured for 24 h after which the supernatant was harvested, and ELISA was performed as per the manufacturer's protocol (BD optEIA Human IP-10 ELISA Set; Cat #550926 & 550534, BD Biosciences). Plates were read in Biotek plate reader by measuring absorbance at 450 nm.
The release of absolute IP-10 in differentiated THP-1 by compounds in the presence of cGAMP was quantified with reference to standard after subtracting blank (negative) reading from the test readings. The absolute release of IP-10 in the presence of cGAMP (1 μM) is given in the bar-graph (FIG.-1) and in the table-B2a.
The release of IP-10 in differentiated THP-1 by compounds over cGAMP induced release at four different concentrations of cGAMP (1, 5, 10 & 30 μM) was quantified with reference to standard by normalizing the blank (negative) subtracted test readings from average of cGAMP activated cells at that particular concentration. The EC50's was calculated by fitting the curve to the “four-parameter variable slope logistic model” using Prism Graph Pad.

[4] = system: IFN-β release in mouse splenocytes; experiment: IFN-β in mouse splenocyte assay; assay type: cell-based, Balb/c mice; conditions: activated Balb/c splenocytes, cGAMP 1 μM, 24 hr
Experimental: Percent release of Interferon Beta (IFN-03) is determined in mouse splenocytes isolated from Balb/c mice. Mouse splenocytes ([…] cells/well) were activated with Anti-mouse CD3e (3 μg/mil, coated overnight at 4° C.; Cat #14-0032-82, eBioscience) and then incubated with Anti-mouse CD28 (3 μg/ml soluble; Cat #16-0289-81, eBiosciences) for 24 h at 37° C., 5% CO2 in an incubator (cell culture conditions) prior to treating them with serial dilutions of compounds (3 fold, 6 point dose response starting at 30 μM). After treatment with the compounds cells are further incubated for 2 h under cell culture conditions and then treated with 2′,3′-cGAMP (c-GAMP, 1 μM; Cat #SML 1229, Sigma). Splenocytes were further incubated under cell culture conditions for 24 hr after which the supernatant was harvested, and ELISA was performed as per the manufacturer's protocol (mIFN-β kit; Cat #MIFNB0 & DY008, R&D Systems). Plates were read in Biotek plate reader by measuring absorbance at 450 nm.

[5] = target: ENPP-1 (Ectonucleotide Pyrophosphatase/Phosphodiesterase 1) (Homo sapiens (Human), UniProt P22413); experiment: ENPP1 inhibition assay (AMP Glo, cGAMP substrate); assay type: biochemical; conditions: cGAMP 20 μM substrate, ENPP1 1 nM
Sequence of ENPP-1 (Ectonucleotide Pyrophosphatase/Phosphodiesterase 1) (P22413 whole entry): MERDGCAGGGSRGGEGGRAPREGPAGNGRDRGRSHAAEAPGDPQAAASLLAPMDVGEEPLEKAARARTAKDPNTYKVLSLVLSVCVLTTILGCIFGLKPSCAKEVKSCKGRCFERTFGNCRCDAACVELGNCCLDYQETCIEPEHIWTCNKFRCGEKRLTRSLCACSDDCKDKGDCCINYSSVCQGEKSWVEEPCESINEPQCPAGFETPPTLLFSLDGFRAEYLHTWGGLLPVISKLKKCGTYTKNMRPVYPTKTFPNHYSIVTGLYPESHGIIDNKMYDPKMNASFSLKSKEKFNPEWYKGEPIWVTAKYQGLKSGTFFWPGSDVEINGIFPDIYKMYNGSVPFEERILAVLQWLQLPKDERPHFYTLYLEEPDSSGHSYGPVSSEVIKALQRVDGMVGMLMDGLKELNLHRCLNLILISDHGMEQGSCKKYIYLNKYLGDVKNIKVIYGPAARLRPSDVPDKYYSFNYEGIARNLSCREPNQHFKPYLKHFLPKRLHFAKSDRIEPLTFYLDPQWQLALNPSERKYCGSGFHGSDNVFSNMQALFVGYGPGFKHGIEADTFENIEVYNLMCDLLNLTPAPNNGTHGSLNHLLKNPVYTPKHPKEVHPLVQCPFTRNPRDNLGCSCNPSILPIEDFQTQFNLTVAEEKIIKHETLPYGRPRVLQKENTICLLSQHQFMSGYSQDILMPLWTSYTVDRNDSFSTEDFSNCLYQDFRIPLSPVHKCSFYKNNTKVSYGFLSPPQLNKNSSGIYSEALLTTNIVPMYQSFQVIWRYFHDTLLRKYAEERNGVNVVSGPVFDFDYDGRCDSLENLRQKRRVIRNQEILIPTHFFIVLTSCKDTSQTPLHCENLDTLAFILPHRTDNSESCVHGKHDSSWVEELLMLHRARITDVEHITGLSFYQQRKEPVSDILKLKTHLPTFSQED

For `Cc1cc(Cl)n2ncnc(N3CC4(CC(N(C)S(N)(=O)=O)C4)C3)c12` [Compound 1.76, N-[2-(7-chloro-5-methylpyrrolo[2,1-f][1,2,4]triazin-4-yl)-2-azaspiro[3.3]hept-6-yl]-N-methylsulfuric diamide], the IC50 [1] was 1780 nM, the EC50 [2] was < 0.12 µM and the EC50 [3] was 0.071 µM. For the same compound, the IC50 [4] was 3260 nM and the IC50 [5] was 0.084 µM.

For `COc1cc2ncnc(N3CC(CCCS(N)(=O)=O)C3)c2cc1OC` [Compound 1.39, 3-(1-(6,7-dimethoxyquinazolin-4-yl)azetidin-3-yl)propane-1-sulfonamide], the EC50 [2] was > 30 µM and the EC50 [3] was 3.26 µM.

For `COc1cc2ncnc(N3CC(CCNS(C)(=O)=O)C3)c2cc1OC` [Compound 1.6, N-(2-[1-(6,7-dimethoxyquinazolin-4-yl)azetidin-3-yl]ethyl)methanesulfonamide], the EC50 [2] was > 30 µM, the EC50 [3] was 7.78 µM and the IC50 [5] was 0.09 µM.

`Cc1nc(N2CC(CCNS(N)(=O)=O)C2)c2c(C)ccn2n1` [Compound 1.71, 4-(3-(2-sulfamoylaminoethyl)azetidine-1-yl)-2,5-di-methylpyrrolo[1,2-f][1,2,4]triazine] was tested, and the EC50 [2] was > 30 µM and the IC50 [5] was > 3 µM.

`COc1cc2ncnc(N3CC(CC(=O)NO)C3)c2cc1OC` [Compound 1.28, 2-(1-(6,7-dimethoxyquinazolin-4-yl)azetidin-3-yl)-N-hydroxyacetamide] was tested, and the EC50 [2] was > 30 µM, the EC50 [3] was 9.56 µM and the IC50 [5] was 0.026 µM.

For `COc1cc2ncnc(N3CC4(CC(N(C5CC5)S(N)(=O)=O)C4)C3)c2cc1OC` [Compound 1.48, N-[2-(6,7-di-methoxyquinazoline-4-yl)-2-azaspiro[3.3]hept-6-yl]-N-cyclopropylsulfuric diamide], the EC50 [3] was > 30 µM and the IC50 [5] was 0.144 µM.

`COc1cc2nc(-c3ccncc3)nc(N3CC(CCNS(N)(=O)=O)C3)c2cc1OC` [Compound 1.35, 4-(3-(2-sulfamoylaminoethyl)azetidine-1-yl)-6,7-dimethoxy-2-(pyridin-4-yl)quinazoline] was tested, and the EC50 [3] was > 30 µM and the IC50 [5] was 0.099 µM.

`COc1cc2ncnc(N3CC(CCB(O)O)C3)c2cc1OC` [Compound 1.30, 2-(1-(6,7-dimethoxyquinazolin-4-yl)azetidin-3-yl)ethylboronic acid] was tested, and the EC50 [2] was > 30 µM, the EC50 [3] was < 0.12 µM and the IC50 [5] was 0.019 µM.

In the case of `COc1cc2ncnc(N3CC(CCN(C4CC4)S(N)(=O)=O)C3)c2cc1OC` [Compound 1.23, 4-(3-(2-((sulfamoyl)(cyclopropyl)amino)ethyl)azetidine-1-yl)-6,7-dimethoxyquinazoline], the EC50 [2] is reported as > 30 µM, the EC50 [3] is reported as 7.87 µM and the IC50 [5] is reported as 0.029 µM.

In the case of `COc1cc(OC)c2ncnc(N3CC(CCNS(N)(=O)=O)C3)c2c1` [Compound 1.50, 4-(3-(2-sulfamoylaminoethyl)azetidine-1-yl)-6,8-di-methoxyquinazoline], the EC50 [3] is reported as > 30 µM and the IC50 [5] is reported as 1.48 µM.

For `Cc1ccn2ncnc(N3CC(CCNS(N)(=O)=O)C3)c12` [Compound 1.20, 4-(3-(2-sulfamoylaminoethyl)azetidine-1-yl)-5-methylpyrrolo[1,2-f][1,2,4]triazine], the EC50 [2] was > 30 µM, the EC50 [3] was 5.73 µM and the IC50 [5] was 0.07 µM.

For `COc1ccc2c(N3CC4(CC(NS(N)(=O)=O)C4)C3)ncnc2c1` [Compound 1.26, 4-(6-sulfamoylamino-2-azaspiro[3.3]heptan-2-yl)-7-methoxyquinazoline], the EC50 [3] was < 0.12 µM and the IC50 [5] was 0.006 µM.

For `COc1cc2nncc(N3CC(CCNS(N)(=O)=O)C3)c2cc1OC` [Compound 1.27, 4-(3-(2-sulfamoylaminoethyl)azetidine-1-yl)-6,7-dimethoxycinnoline], the EC50 [3] was < 0.1 µM and the IC50 [5] was 0.043 µM.

With `COc1cc2nc(-c3ccccc3)nc(N3CC(CCNS(N)(=O)=O)C3)c2cc1OC` [Compound 1.21, 4-(3-(2-sulfamoylaminoethyl)azetidine-1-yl)-6,7-dimethoxy-2-phenylquinazoline] the EC50 [2] was > 30 µM, the EC50 [3] was 1.88 µM and the IC50 [5] was 0.092 µM.

In the case of `COc1cc2ncnc(N3CC(C(C)CNS(N)(=O)=O)C3)c2cc1OC` (stereo not drawn) [Compound 1.70, 4-3-(3-sulfamoylaminopropan-2-yl)azetidin-1-yl-6,7-dimethoxyquinazoline], the EC50 [2] is reported as 2.82 µM, the EC50 [3] is reported as 0.304 µM and the IC50 [5] is reported as 0.024 µM.

`COc1cc2ncnc(N3CC4(CC(NS(C)(=O)=O)C4)C3)c2cc1OC` [Compound 1.49, N-(2-(6,7-dimethoxyquinazolin-4-yl)-2-azaspiro[3.3]heptan-6-yl)methanesulfonamide] was tested, and the EC50 [3] was > 30 µM and the IC50 [5] was > 1.98 µM.

In the case of `COc1cc2ncnc(N3CC(CCC(=O)NO)C3)c2cc1OC` [Compound 1.51, 3-(1-(6,7-dimethoxyquinazolin-4-yl)azetidin-3-yl)-N-hydroxypropanamide], the EC50 [3] is reported as > 30 µM and the IC50 [5] is reported as 0.015 µM.

`COc1cc2ncnc(N3CC(CCS(N)(=O)=O)C3)c2cc1OC` [Compound 1.52, 2-(1-(6,7-dimethoxyquinazolin-4-yl)azetidin-3-yl)ethanesulfonamide] was tested, and the EC50 [3] was > 18.6 µM and the IC50 [5] was 0.043 µM.

With `COc1cc2ncnc(N3CC(CCNS(N)(=O)=O)C3)c2cc1F` [Compound 1.66, 4-(3-(2-sulfamoylaminoethyl)azetidine-1-yl)-6-fluoro-7-methoxy quinazoline] the EC50 [3] was < 0.12 µM and the IC50 [5] was 0.006 µM.
